Active and inactive are the calls of the source. No cut-off for these calls is given here. Peptide text beside a SMILES is read from it. * marks the point of attachment. X1 = CC(=O)O[C@H]1C(=O)[C@@]2(C)[C@H]([C@H](OC(=O)c3ccccc3)[C@]3(O)C[C@H](OC(=O)[C@H](OC(=O)OCCS*)[C@@H](NC(=O)c4ccccc4)c4ccccc4)C(C)=C1C3(C)C)[C@]1(OC(C)=O)CO[C@@H]1C[C@@H]2O; X2 = NCCCC[C@H](N*)C(=O)NC(=O)C1CCC(=O)N1
Key:
MCF7 [1] = assay: Cytotoxicity against human MCF7 cells assessed as reduction in cell viability measured after 48 hrs in presence of MMP inhibitor ilomastat by MTT assay; type: functional, cell-based
[2] = Drug uptake in human MCF7 cells at 20 nM measured after 4 hrs by LC-MS analysis; type: ADME, cell-based; conditions: mcf7, 4 h, 0.02 µM
[3] = Neurotoxicity in BALB/c mouse assessed as change in glutamate level at 12 umol/kg, ip administered every two days for 14 days measured post last dose by LC-MS analysis; type: toxicity, organism-based; conditions: in vivo, 336 h, dose 12 µmol/kg, time 14 day
[4] = Neurotoxicity in BALB/c mouse assessed as change in serotonin level at 12 umol/kg, ip administered every two days for 14 days measured post last dose by LC-MS analysis; type: toxicity, organism-based; conditions: in vivo, 336 h, dose 12 µmol/kg, time 14 day
[5] = Drug conversion in kidney of BALB/c nude mouse xenografted with human MCF7 cells assessed as T2-PTX formation at 8 to 12 umol/kg, ip measured after 2 hrs by LC-MS analysis; type: ADME, organism-based; conditions: in vivo, dose 8-12 µmol/kg
MCF7 [6] = assay: Antitumor activity against human MCF7 cells xenografted in BALB/c nude mouse assessed as reduction in tumor weight at 12 umol/kg, ip administered every two days for two weeks relative to control; type: functional; design: scale not given: the % may be the effect or the level left; conditions: dose 12 µmol/kg; time 2 weeks
MCF7 [7] = assay: Cytotoxicity against human MCF7 cells assessed as reduction in cell viability measured after 48 hrs in presence of MMP inhibitor ilomastat and LHRH by MTT assay; type: functional, cell-based
[8] = Stability of compound in PBS buffer at 0.5 uM measured after 2 hrs by LC-MS analysis; type: physicochemical
[9] = Neurotoxicity in BALB/c mouse assessed as change in histamine level at 12 umol/kg, ip administered every two days for 14 days measured post last dose by LC-MS analysis; type: toxicity, organism-based; conditions: in vivo, 336 h, dose 12 µmol/kg, time 14 day
[10] = Drug conversion in serum of BALB/c nude mouse xenografted with human MCF7 cells assessed as PTX formation at 8 to 12 umol/kg, ip measured after 2 hrs by LC-MS analysis; type: ADME, organism-based; conditions: in vivo, dose 8-12 µmol/kg
MCF7 [11] = assay: Induction of mitochondrial membrane potential loss in human MCF7 cells at IC50 measured after 4 hrs by JC-1 staining based flow cytometry; type: functional, cell-based
[12] = Toxicity in human MCF7 cells xenografted in BALB/c nude mouse assessed as morphological changes in lung at 8 to 12 umol/kg, ip administered every two days for two weeks measured post last dose by H and E staining based histological analysis; type: organism-based; conditions: in vivo, 336 h, dose 8-12 µmol/kg, time 2 weeks
HEK293 = assay: Cytotoxicity against HEK293 cells assessed as reduction in cell viability measured after 48 hrs by MTT assay; type: cell-based; conditions: Homo sapiens, HEK293, 48 h
MCF7 [13] = assay: Antitumor activity against human MCF7 cells xenografted in ip dosed BALB/c nude mouse assessed as tumor shrinkage administered every two days for two weeks; type: functional, organism-based; conditions: dose 8-12 µmol/kg, time 2.0 weeks
MCF7 [14] = assay: Induction of apoptosis in human MCF7 cells at IC50 measured after 4 hrs by Annexin-V FITC/propidium iodide staining based flow cytometry; type: functional, cell-based
[15] = molecular target: 72 kDa type IV collagenase (Homo sapiens, UniProt P08253); assay: Drug metabolism in PBS buffer assessed as MMP2 (unknown origin)-mediated PTX formation at 0.5 uM incubated for 2 hrs followed by GSH addition and measured after 2 hrs by LC-MS analysis; type: ADME; conditions: 4 h
Chain of 72 kDa type IV collagenase (P08253 whole entry): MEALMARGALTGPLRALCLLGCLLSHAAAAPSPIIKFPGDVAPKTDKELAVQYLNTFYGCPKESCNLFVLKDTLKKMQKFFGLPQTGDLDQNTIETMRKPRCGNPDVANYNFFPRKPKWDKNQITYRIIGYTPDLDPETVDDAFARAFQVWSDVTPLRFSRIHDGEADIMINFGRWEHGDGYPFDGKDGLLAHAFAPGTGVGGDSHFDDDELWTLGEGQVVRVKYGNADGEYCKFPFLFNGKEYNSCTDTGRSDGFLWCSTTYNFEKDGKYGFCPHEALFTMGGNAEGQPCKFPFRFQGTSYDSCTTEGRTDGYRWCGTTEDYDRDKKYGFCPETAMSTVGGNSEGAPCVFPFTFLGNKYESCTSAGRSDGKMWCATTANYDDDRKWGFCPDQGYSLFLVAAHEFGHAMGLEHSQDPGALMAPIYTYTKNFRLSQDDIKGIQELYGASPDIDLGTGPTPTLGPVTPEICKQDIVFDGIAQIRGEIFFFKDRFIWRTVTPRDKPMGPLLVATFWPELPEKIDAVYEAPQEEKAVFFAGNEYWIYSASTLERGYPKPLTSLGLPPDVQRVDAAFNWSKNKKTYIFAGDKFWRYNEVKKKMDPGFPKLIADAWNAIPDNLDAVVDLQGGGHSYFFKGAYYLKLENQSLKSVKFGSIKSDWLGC

[16] = Toxicity in human MCF7 cells xenografted in BALB/c nude mouse assessed as change in body weight at 8 to 12 umol/kg, ip administered every two days for two weeks; type: organism-based; conditions: in vivo, 336 h, dose 8-12 µmol/kg, time 2 weeks
[17] = Cytotoxicity against human A2780/PTX cells assessed as reduction in cell viability measured after 48 hrs by MTT assay; type: functional, cell-based
MCF7 [18] = assay: Cytotoxicity against human MCF7 cells assessed as reduction in cell viability measured after 48 hrs by MTT assay; type: functional, cell-based; conditions: MCF7, 48 h
MCF7 [19] = assay: Induction of apoptosis in human MCF7 cells xenografted in ip dosed BALB/c nude mouse assessed as down regulation of Bcl2 expression administered every two days for two weeks measured post last dose by Western blot analysis; type: functional, organism-based; conditions: dose 8-12 µmol/kg, time 2.0 weeks
[20] = Neurotoxicity in BALB/c mouse assessed as change in noradrenaline level at 12 umol/kg, ip administered every two days for 14 days measured post last dose by LC-MS analysis; type: toxicity, organism-based; conditions: in vivo, 336 h, dose 12 µmol/kg, time 14 day
[21] = Drug conversion in serum of BALB/c nude mouse xenografted with human MCF7 cells assessed as T2-PTX formation at 8 to 12 umol/kg, ip measured after 2 hrs by LC-MS analysis; type: ADME, organism-based; conditions: in vivo, dose 8-12 µmol/kg
MCF7 [22] = assay: Antitumor activity against human MCF7 cells xenografted in BALB/c nude mouse assessed as reduction in tumor volume at 8 umol/kg, ip administered every two days for two weeks relative to control; type: functional; design: scale not given: the % may be the effect or the level left; conditions: dose 8 µmol/kg; time 2 weeks
[23] = Toxicity in human MCF7 cells xenografted in BALB/c nude mouse assessed as morphological changes in spleen at 8 to 12 umol/kg, ip administered every two days for two weeks measured post last dose by H and E staining based histological analysis; type: organism-based; conditions: in vivo, 336 h, dose 8-12 µmol/kg, time 2 weeks
HT-29 = assay: Cytotoxicity against human HT-29 cells assessed as reduction in cell viability measured after 48 hrs by MTT assay; type: functional, cell-based; conditions: HT-29, 48 h
HeLa = assay: Cytotoxicity against human HeLa cells assessed as reduction in cell viability measured after 48 hrs by MTT assay; type: functional, cell-based
[24] = Drug uptake in human MCF7 cells at 20 nM measured after 4 hrs in presence of LHRH by LC-MS analysis; type: ADME, cell-based; conditions: mcf7, 4 h, 0.02 µM
NCM460 = assay: Cytotoxicity against human NCM460 cells assessed as reduction in cell viability measured after 48 hrs by MTT assay; type: cell-based; conditions: NCM460, 48 h
[25] = Drug uptake in human MCF7 cells at 20 nM measured after 4 hrs in presence of MMP inhibitor ilomastat and LHRH by LC-MS analysis; type: ADME, cell-based; conditions: mcf7, 4 h, 0.02 µM
[26] = Half life in human plasma at 50 uM by LC-MS analysis; type: ADME, cell-free
Erythrocyte = assay: Hemolytic activity against human erythrocytes up to 80 uM measured after 1 hr; type: ADME, cell-based

- Drug uptake [2]: Active
- Drug metabolism [5]: Metabolite_Notdetected
- Stabilty [8]: Stable
- Drug metabolism [10]: Metabolite_Notdetected
- Drug metabolism [15]: Metabolite_Detected
- Drug metabolism [21]: Metabolite_Notdetected
- Drug uptake [24]: Active
- Drug uptake [25]: Active
- half-life at 50 µM [26]: 2 h
Compound: CC(=O)O[C@H]1C(=O)[C@@]2(C)[C@H]([C@H](OC(=O)c3ccccc3)[C@]3(O)C[C@H](OC(=O)[C@H](OC(=O)OCCSSC[C@H](N)C(=O)N[C@@H](CC(C)C)C(=O)N[C@@H](CC(C)C)C(=O)N[C@@H](CCCCN)C(=O)N[C@@H](CCCNC(=N)N)C(=O)N[C@@H](Cc4ccccc4)C(=O)N[C@@H](Cc4ccccc4)C(=O)N[C@@H](CCCCN)C(=O)N[C@@H](CCCCN)C(=O)N[C@@H](Cc4ccccc4)C(=O)NCC(=O)N[C@@H](C)C(=O)N[C@@H](CC(C)C)C(=O)NCC(=O)N[C@@H](CC(C)C)C(=O)N4CCC[C@H]4C(=O)NCC(=O)N4CCC[C@H]4C(=O)N[C@@H](CCCNC(=N)N)C(=O)N[C@@H](CC(C)C)C(=O)NCC(=O)N[C@@H](Cc4ccc(O)cc4)C(=O)N[C@@H](CO)C(=O)N[C@@H](Cc4c[nH]c5ccccc45)C(=O)N[C@@H](CCCCN)C(=O)NC(=O)C4CCC(=O)N4)[C@@H](NC(=O)c4ccccc4)c4ccccc4)C(C)=C1C3(C)C)[C@]1(OC(C)=O)CO[C@@H]1C[C@@H]2O (stereo partly specified) (H-C(X1)LLKRFFKKFGALGLPGPRLGYSW-X2)
- Activity (MCF7 [1]): inactive
- Activity [3]: Non-Toxic
- Activity [4]: Non-Toxic
- Activity (MCF7 [6]): 83.4%
- Activity (MCF7 [7]): inactive
- Activity [9]: Non-Toxic
- Activity (MCF7 [11]): Active
- Activity [12]: Non-Toxic
- IC50 (HEK293): 66 nM
- Activity (MCF7 [13]): Dose-dependent effect
- Activity (MCF7 [14]): Active
- Activity [16]: Non-Toxic
- IC50 [17]: 800 nM
- IC50 (MCF7 [18]): 3.8 nM
- Activity (MCF7 [19]): Dose-dependent effect
- Activity [20]: Non-Toxic
- Activity (MCF7 [22]): 77.2%
- Activity [23]: Non-Toxic
- IC50 (HT-29): 5.6 nM
- IC50 (HeLa): 20.3 nM
- IC50 (NCM460): > 80 nM
- Activity (Erythrocyte): Non-Toxic

— ChEMBL document CHEMBL4732115, “Discovery of novel cell-penetrating and tumor-targeting peptide-drug conjugate (PDC) for programmable delivery of paclitaxel and cancer treatment” (Eur J Med Chem, 2021)
